# Data published in publication PMC8658824, “ThermoSlope: A Software for Determining Thermodynamic Parameters from Single Steady-State Experiments” (Molecules, 2021).
# B1: pLipA (Bacillus pumilus LipA; Lipase L5) (Bacillus pumilus) (protein)
# chain: AEHNPVVMVHGMGGASYNFASIKSYLVTQGWDRNQLFAIDFIDKTGNNRNNGPRLSRFVKDVLGKTGAKKVDIVAHSMGGANTLYYIKNLDGGDKIENVVTLGGANGLVSLRALPGTDPNQKILYTSVYSSADMIVVNSLSRLIGARNVLIHGVGHISLLASSQVKGYIKEGLNGGGQNTN
# notes: residues 35-215, codon-optimised synthetic gene in pET-22b(+) NdeI/XhoI, His-tag purified (tag removal not mentioned), E. coli NiCo21(DE3)
# What was measured:
# [1] = target: T1, Pseudoalteromonas haloplanktis α-amylase (AHA) (Pseudoalteromonas haloplanktis, UniProt P29957); test: colourimetric, […] nm, temperature gradient (ThermoSlope); assay type: biochemical; conditions: phosphate buffered saline; 60 nM enzyme; 283-306 K, 1 K/min
# T1 construct: gene amy; recombinant, E. coli, same protocol as pLipA (IMAC, then HiTrap SP)
# T1 sequence (P29957 25-477): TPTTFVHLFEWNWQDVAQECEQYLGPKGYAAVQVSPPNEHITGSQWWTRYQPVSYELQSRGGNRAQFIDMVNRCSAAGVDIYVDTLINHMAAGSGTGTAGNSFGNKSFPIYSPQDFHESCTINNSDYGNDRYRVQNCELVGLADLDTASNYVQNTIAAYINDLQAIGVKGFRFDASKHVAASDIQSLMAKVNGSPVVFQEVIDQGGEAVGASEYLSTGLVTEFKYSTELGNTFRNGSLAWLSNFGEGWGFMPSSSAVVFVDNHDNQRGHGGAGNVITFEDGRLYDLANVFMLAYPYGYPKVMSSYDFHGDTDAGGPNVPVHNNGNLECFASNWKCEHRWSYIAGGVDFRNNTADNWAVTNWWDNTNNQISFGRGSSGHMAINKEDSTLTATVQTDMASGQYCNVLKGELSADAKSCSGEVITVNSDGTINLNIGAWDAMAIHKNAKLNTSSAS
# [2] = target: T2, Bacillus licheniformis α-amylase (BLA) (Bacillus licheniformis, UniProt P06278); test: as above; assay type: biochemical; conditions: phosphate buffered saline; 3.8 µM enzyme; 303-363 K, 2 K/min
# T2 construct: gene amyS; commercial enzyme (Sigma-Aldrich A3403)
# T2 sequence (P06278 30-512): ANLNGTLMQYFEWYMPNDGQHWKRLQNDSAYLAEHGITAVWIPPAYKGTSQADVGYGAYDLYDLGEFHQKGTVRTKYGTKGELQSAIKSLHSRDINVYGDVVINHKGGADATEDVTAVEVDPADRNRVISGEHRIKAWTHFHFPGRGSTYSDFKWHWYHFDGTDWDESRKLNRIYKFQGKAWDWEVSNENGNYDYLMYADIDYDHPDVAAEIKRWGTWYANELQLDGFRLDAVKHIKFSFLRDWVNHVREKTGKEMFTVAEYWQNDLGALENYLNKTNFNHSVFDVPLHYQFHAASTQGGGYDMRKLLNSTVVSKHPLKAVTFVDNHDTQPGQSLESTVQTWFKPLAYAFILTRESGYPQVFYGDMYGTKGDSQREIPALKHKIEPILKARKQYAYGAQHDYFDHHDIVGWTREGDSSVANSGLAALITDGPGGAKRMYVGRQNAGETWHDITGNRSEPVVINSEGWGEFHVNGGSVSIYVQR
# [3] = target: T3, Pig porcine α-amylase (PPA) (Sus scrofa, UniProt P00690); test: as above; assay type: biochemical; conditions: phosphate buffered saline; 0.45 nM enzyme; 283-363 K, 1 K/min
# T3 construct: gene AMY2; commercial native enzyme (Sigma-Aldrich A4268)
# T3 sequence (P00690 16-511): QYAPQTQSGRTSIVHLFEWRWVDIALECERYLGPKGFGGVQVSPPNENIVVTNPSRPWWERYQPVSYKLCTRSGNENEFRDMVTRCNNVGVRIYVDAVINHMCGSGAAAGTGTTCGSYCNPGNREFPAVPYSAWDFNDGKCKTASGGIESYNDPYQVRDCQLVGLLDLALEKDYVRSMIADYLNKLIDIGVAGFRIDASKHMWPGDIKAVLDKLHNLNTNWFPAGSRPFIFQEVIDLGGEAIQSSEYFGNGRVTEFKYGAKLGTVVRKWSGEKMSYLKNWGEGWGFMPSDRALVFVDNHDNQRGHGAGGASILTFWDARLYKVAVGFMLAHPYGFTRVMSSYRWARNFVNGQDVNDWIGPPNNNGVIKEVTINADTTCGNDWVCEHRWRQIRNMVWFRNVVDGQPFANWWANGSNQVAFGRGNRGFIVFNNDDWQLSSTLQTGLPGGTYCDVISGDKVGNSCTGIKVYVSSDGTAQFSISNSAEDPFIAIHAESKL
# purified protein = substrate: CCCC(=O)Oc1ccc([N+](=O)[O-])cc1; test: purified protein; assay type: biochemical, Bacillus pumilus; conditions: 298 K, 50 mM potassium phosphate pH 7.2, 5% acetonitrile, 1 nM enzyme, stepwise approach, 25.0 °C
Molecule,"colourimetric, 405 nm, temperature gradient (ThermoSlope) [1]","colourimetric, 405 nm, temperature gradient (ThermoSlope) [2]","colourimetric, 405 nm, temperature gradient (ThermoSlope) [3]",Km (purified protein) [µM],kcat (purified protein) [s⁻¹]
O=[N+]([O-])c1ccc(O[C@H]2O[C@H](CO)[C@@H](O[C@H]3O[C@H](CO)[C@@H](O[C@H]4O[C@H](CO)[C@@H](O)[C@H](O)[C@H]4O)[C@H](O)[C@H]3O)[C@H](O)[C@H]2O)c(Cl)c1 [2-Chloro-4-nitrophenyl-α-D-maltotrioside],α-amylases were completed in a similar fashion using the ThermoSlope-approach with the chromogenic substrate,α-amylases were completed in a similar fashion using the ThermoSlope-approach with the chromogenic substrate,α-amylases were completed in a similar fashion using the ThermoSlope-approach with the chromogenic substrate,–,–
B1,–,–,–,500 ± 100,310 ± 20
